From patent US20080070267A1, “Modulation Of Neurotransmitter Activity In Neurons” (The Regents of the University of California, priority 2004, published 2008)

Assays:
[1] = system: Ca^2+ spike activity of cultured embryonic spinal neurons; experiment: Suppression of spike activity in dissociated neuron cultures; format: cell-based, Xenopus; settings: 2 mM Ca^2+ culture medium
[2] = system: myoballs expressing glutamate receptors (rGluR2); experiment: Whole-cell recording of spontaneous synaptic currents from myoballs expressing rGluR2 at neuronal growth cones; format: cell-based, Xenopus; settings: myoballs expressing rGluR2 in contact with growth cones

SMILES	spike activity in vitro [1]	spontaneous synaptic currents (SSCs), glutamatergic [2]
CC(=O)OCOC(=O)CN(CC(=O)OCOC(C)=O)c1ccccc1OCCOc1ccccc1N(CC(=O)OCOC(C)=O)CC(=O)OCOC(C)=O [BAPTA-AM, bis-(o-aminophenoxy)ethane-N,N,N,N-tetraacetic acid acetoxymethyl ester]	suppression of spike activity	–
N#Cc1cc2c(cc1[N+](=O)[O-])=NC(=O)C(=O)N=2 [CNQX]	–	blocked
